Test results published in PubChem BioAssay AID1919009 (Molecular Pharmacology Branch, DTP, NCI, 2023).
pIC50: −log10 of the molar value.

Test system: K24384-001-R-PDC complex spheroid growth
Assay: Anticancer human tumor K24384-001-R-PDC patient-derived pancreatic adenocarcinoma cell line growth inhibition [AhR]
Settings: for pIC50: curve of first compound; for viability, T/C: stronger effect = lower value
Method in brief: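 Complex tumor spheroids co-cultured with HUVEC and human MSC stroma; AhR antagonists tested in combination with standard-of-care and investigational agents. Top concentration at or near clinical Cmax (else 10 microM), half-log dilutions; growth expressed as percent test/control.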
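For viability, T/C in this document: percent of DMSO vehicle-treated spheroid viability set as 100%.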

`CC(C)c1c(-c2ccccc2)nc2c(C#N)c[nH]n2c1=O` + Cc1cncc(-c2nc(NCCc3c[nH]c4ccccc34)c3ncn(C(C)C)c3n2)c1 showed a pIC50 (second compound 0.1 µM) of less than 5.00, a pIC50 (second compound 0.316 µM) of less than 5.00 and a pIC50 (second compound 1 µM) of less than 5.00. The pIC50 (second compound 3.16 µM) was less than 5.00, the pIC50 (second compound 10 µM) was greater than 7.50 and the viability, T/C (second compound 0.1 µM, first compound 0.0316 µM) was 108%. For the same compound, the viability, T/C (second compound 0.1 µM, first compound 0.1 µM) was 110%, the viability, T/C (second compound 0.1 µM, first compound 0.316 µM) was 106% and the viability, T/C (second compound 0.1 µM, first compound 1 µM) was 102%. For the same compound, the viability, T/C (second compound 0.1 µM, first compound 3.16 µM) was 85.6%, the viability, T/C (second compound 0.1 µM, first compound 10 µM) was 85.8% and the viability, T/C (second compound 0.316 µM, first compound 0.0316 µM) was 104%. The viability, T/C (second compound 0.316 µM, first compound 0.1 µM) was 101%, the viability, T/C (second compound 0.316 µM, first compound 0.316 µM) was 115% and the viability, T/C (second compound 0.316 µM, first compound 1 µM) was 95.7%. The viability, T/C (second compound 0.316 µM, first compound 3.16 µM) was 87.5%, the viability, T/C (second compound 0.316 µM, first compound 10 µM) was 77.3% and the viability, T/C (second compound 1 µM, first compound 0.0316 µM) was 108%. It also gave a viability, T/C (second compound 1 µM, first compound 0.1 µM) of 110%, a viability, T/C (second compound 1 µM, first compound 0.316 µM) of 94.5% and a viability, T/C (second compound 1 µM, first compound 1 µM) of 95.1%. The viability, T/C (second compound 1 µM, first compound 3.16 µM) was 99%, the viability, T/C (second compound 1 µM, first compound 10 µM) was 69.1% and the viability, T/C (second compound 3.16 µM, first compound 0.0316 µM) was 83.7%. The viability, T/C (second compound 3.16 µM, first compound 0.1 µM) was 91.4%, the viability, T/C (second compound 3.16 µM, first compound 0.316 µM) was 82.6% and the viability, T/C (second compound 3.16 µM, first compound 1 µM) was 61.9%. The viability, T/C (second compound 3.16 µM, first compound 3.16 µM) was 70.4%, the viability, T/C (second compound 3.16 µM, first compound 10 µM) was 77.3% and the viability, T/C (second compound 10 µM, first compound 0.0316 µM) was 7.78%. It also gave a viability, T/C (second compound 10 µM, first compound 0.1 µM) of 6.78%, a viability, T/C (second compound 10 µM, first compound 0.316 µM) of 7.75% and a viability, T/C (second compound 10 µM, first compound 1 µM) of 8.55%. The viability, T/C (second compound 10 µM, first compound 3.16 µM) was 7.71% and the viability, T/C (second compound 10 µM, first compound 10 µM) was 10.2%.
